Measured values as given in patent US9745261B2, “Inhibitors of the MITF molecular pathway” (THE GENERAL HOSPITAL CORPORATION, priority 2013, dated 2017).

How the values were obtained:
MLANA = assay: qPCR assay for MLANA expression in SK-MEL-5 cells; assay type: cell-based; settings: Homo sapiens; SK-MEL-5 melanoma cells, up to 35 μM
MALME-3M cells = assay: MALME-3M cell cytotoxicity assay (CellTiter-Glo); assay type: cell-based, human; settings: Homo sapiens, Malme-3M, read-out: Target Potency IC50 (μM) MALME-3M; 24 hours, CellTiter-Glo
Method: MALME-3M cells were treated with compounds for 24 hours, and then cell viability was measured using the CellTiter-Glo Assay (Promega), a luciferase-based reagent that measures cellular ATP levels. The compounds were tested at different concentrations to determine IC50 values. Compounds that were active in the primary assay and toxic below 30 μM at 24 hours were considered for probe development. Data were normalized against DMSO in Genedata Screener's Assay Analyzer.
MALME-3M cells were maintained in IMDM (20% FBS, 1% Pen-Strep-Glutamine). Cells were fluid changed every 3 days and/or split upon reaching 100% confluency. For secondary assays, cells were thawed at 6 million cells per Falcon T175 flask. After 3 days, cells were fluid changed, after 3 more days cells were passed to a Corning Triple flask (15-18 million cells) and plated after 3 days in the triple flask.
Day 1 • 1. Plate MALME-3M cells at 3,000 per well in 30 uL media (phenol red free IMDM/10% Fetal Bovine Serum/Penicillin/Streptomycin/L-Glutamine) • 2. Use Corning white 384-well, square, opaque-bottomed plates (Corning Catalog No. 8867BC)
Day 2 • 3. Pin 100 nL compound/DMSO solution (Cybi Well) into assay plates, including the positive control. • 4. Incubate 24 hours at 37° C. in Liconic incubator.
Day 3 • 5. […] Read on the Perkin-Elmer EnVision plate reader with luminescence (LUM) settings for 0.1 sec per well. […]

Opiate δ1 (OP1, DOP) = molecular target: T1, Opiate δ1 (OP1, DOP) (Homo sapiens, UniProt P41143); assay: Radioligand binding, Opiate δ1 (OP1, DOP)
T1 construct: Eurofins Panlabs, Inc

Transporter, GABA = molecular target: T2, Transporter, GABA (Rattus norvegicus, UniProt P23978); assay: Radioligand binding, Transporter, GABA
T2 construct: Eurofins Panlabs

[1] = molecular target: T3, Serotonin (5-Hydroxytryptamine) 5-HT1A (Homo sapiens, UniProt P08908); assay: Radioligand binding, Serotonin (5-Hydroxytryptamine) 5-HT1A
T3 construct: Eurofins Panlabs

Opiate μ (OP3, MOP) = molecular target: T4, Opiate μ (OP3, MOP) (Homo sapiens, UniProt P35372); assay: Radioligand binding, Opiate μ (OP3, MOP)
T4 construct: Eurofins Panlabs, Inc

[2] = molecular target: T5, Platelet Activating Factor (PAF) (Homo sapiens, UniProt P25105); assay: Radioligand binding, Platelet Activating Factor (PAF)
T5 construct: Eurofins Panlabs

Bradykinin B2 = molecular target: T6, Bradykinin B2 (Homo sapiens, UniProt P30411); assay: Radioligand binding, Bradykinin B2
T6 construct: Eurofins Panlabs, Inc. (contract assay)

Endothelin ETB = molecular target: T7, Endothelin ETB (Homo sapiens, UniProt P24530); assay: Radioligand binding, Endothelin ETB
T7 construct: Eurofins Panlabs, Inc. (contract assay)

Histamine H2 = molecular target: T8, Histamine H2 (Homo sapiens, UniProt P25021); assay: Radioligand binding, Histamine H2
T8 construct: Eurofins Panlabs, Inc

Sigma σ1 = molecular target: T9, Sigma σ1 (Homo sapiens, UniProt Q99720); assay: Radioligand binding, Sigma σ1
T9 construct: Eurofins Panlabs

[3] = molecular target: T10, Serotonin (5-Hydroxytryptamine) 5-HT2B (Homo sapiens, UniProt P41595); assay: Radioligand binding, Serotonin (5-Hydroxytryptamine) 5-HT2B
T10 construct: Eurofins Panlabs

[4] = molecular target: T11, Androgen (Testosterone) AR (Rattus norvegicus, UniProt P15207); assay: Radioligand binding, Androgen (Testosterone) AR
T11 construct: Eurofins Panlabs, Inc. (contract assay)

Prostanoid EP4 = molecular target: T12, Prostanoid EP4 (Homo sapiens, UniProt P35408); assay: Radioligand binding, Prostanoid EP4
T12 construct: Eurofins Panlabs

Glucocorticoid = molecular target: T13, Glucocorticoid (Homo sapiens, UniProt P04150); assay: Radioligand binding, Glucocorticoid
T13 construct: Eurofins Panlabs, Inc

Interleukin IL-1 = molecular target: T14, Interleukin IL-1 (Mus musculus, UniProt P13504); assay: Radioligand binding, Interleukin IL-1
T14 construct: Eurofins Panlabs, Inc

Muscarinic M1 = molecular target: T15, Muscarinic M1 (Homo sapiens, UniProt P11229); assay: Radioligand binding, Muscarinic M1
T15 construct: Eurofins Panlabs, Inc

Adenosine A3 = molecular target: T16, Adenosine A3 (Homo sapiens, UniProt P0DMS8); assay: Radioligand binding, Adenosine A3
T16 construct: Eurofins Panlabs, Inc. (contract assay) 200720 (assay number)

[5] = molecular target: T17, Transporter, Serotonin (5-Hydroxytryptamine) (SERT) (Homo sapiens, UniProt P31645); assay: Radioligand binding, Transporter, Serotonin (5-Hydroxytryptamine) (SERT)
T17 construct: Eurofins Panlabs

Dopamine D2S = molecular target: T18, Dopamine D2S (Homo sapiens, UniProt P14416); assay: Radioligand binding, Dopamine D2S
T18 construct: Eurofins Panlabs, Inc. (contract assay)

Neuropeptide Y Y2 = molecular target: T19, Neuropeptide Y Y2 (Homo sapiens, UniProt P49146); assay: Radioligand binding, Neuropeptide Y Y2
T19 construct: Eurofins Panlabs, Inc

[6] = molecular target: T20, Nicotinic Acetylcholine α1, Bungarotoxin (Homo sapiens, UniProt P02708+P07510+Q07001); assay: biochemical; assay type: binding; settings: read-out: % Inh.
T20 construct: Eurofins Panlabs, Inc

Histamine H1 = molecular target: T21, Histamine H1 (Homo sapiens, UniProt P35367); assay: Radioligand binding, Histamine H1
T21 construct: Eurofins Panlabs, Inc

Bradykinin B1 = molecular target: T22, Bradykinin B1 (Homo sapiens, UniProt P46663); assay: Radioligand binding, Bradykinin B1
T22 construct: Eurofins Panlabs, Inc. (contract assay)

Endothelin ETA = molecular target: T23, Endothelin ETA (Homo sapiens, UniProt P25101); assay: Radioligand binding, Endothelin ETA
T23 construct: Eurofins Panlabs, Inc. (contract assay)

Adenosine A1 = molecular target: T24, Adenosine A1 (Homo sapiens, UniProt P30542); assay: Radioligand binding, Adenosine A1
T24 construct: Eurofins Panlabs, Inc. (contract assay) 200510 (assay number)

Tachykinin NK1 = molecular target: T25, Tachykinin NK1 (Homo sapiens, UniProt P25103); assay: Radioligand binding, Tachykinin NK1
T25 construct: Eurofins Panlabs

T16 sequence (P0DMS8 whole entry): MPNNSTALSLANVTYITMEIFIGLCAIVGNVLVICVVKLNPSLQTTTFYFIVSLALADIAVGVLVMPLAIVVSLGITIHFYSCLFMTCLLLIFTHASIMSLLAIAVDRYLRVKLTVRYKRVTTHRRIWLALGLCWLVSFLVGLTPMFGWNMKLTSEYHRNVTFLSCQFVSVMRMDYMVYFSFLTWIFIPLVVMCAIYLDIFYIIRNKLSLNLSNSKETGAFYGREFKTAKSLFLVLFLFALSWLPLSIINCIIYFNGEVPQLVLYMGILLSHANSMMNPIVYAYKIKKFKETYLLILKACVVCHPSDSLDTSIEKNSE
T4 sequence (P35372 whole entry): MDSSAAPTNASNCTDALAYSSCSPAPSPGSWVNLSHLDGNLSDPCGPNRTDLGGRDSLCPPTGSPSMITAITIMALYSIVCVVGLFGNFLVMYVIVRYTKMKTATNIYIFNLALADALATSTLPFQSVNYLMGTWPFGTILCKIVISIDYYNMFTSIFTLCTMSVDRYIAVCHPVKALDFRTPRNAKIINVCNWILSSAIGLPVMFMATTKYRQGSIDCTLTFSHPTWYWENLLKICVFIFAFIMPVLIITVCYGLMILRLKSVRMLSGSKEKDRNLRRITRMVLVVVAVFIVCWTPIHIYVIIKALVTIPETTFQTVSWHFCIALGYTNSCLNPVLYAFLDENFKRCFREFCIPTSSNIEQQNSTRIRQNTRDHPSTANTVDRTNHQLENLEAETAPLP
T21 sequence (P35367 whole entry): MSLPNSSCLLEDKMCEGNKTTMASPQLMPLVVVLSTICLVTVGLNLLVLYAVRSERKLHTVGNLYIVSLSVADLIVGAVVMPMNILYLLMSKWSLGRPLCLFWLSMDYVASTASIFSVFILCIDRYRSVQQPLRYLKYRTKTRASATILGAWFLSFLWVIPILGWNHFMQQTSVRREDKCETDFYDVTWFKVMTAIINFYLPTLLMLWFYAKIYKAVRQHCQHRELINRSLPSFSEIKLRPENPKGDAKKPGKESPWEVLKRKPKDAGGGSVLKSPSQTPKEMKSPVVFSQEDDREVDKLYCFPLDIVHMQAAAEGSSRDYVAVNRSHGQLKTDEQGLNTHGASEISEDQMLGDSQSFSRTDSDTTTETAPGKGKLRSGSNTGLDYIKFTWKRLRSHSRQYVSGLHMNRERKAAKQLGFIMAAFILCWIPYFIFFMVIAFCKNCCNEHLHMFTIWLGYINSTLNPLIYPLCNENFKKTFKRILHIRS
T20 sequence (P02708 21-457): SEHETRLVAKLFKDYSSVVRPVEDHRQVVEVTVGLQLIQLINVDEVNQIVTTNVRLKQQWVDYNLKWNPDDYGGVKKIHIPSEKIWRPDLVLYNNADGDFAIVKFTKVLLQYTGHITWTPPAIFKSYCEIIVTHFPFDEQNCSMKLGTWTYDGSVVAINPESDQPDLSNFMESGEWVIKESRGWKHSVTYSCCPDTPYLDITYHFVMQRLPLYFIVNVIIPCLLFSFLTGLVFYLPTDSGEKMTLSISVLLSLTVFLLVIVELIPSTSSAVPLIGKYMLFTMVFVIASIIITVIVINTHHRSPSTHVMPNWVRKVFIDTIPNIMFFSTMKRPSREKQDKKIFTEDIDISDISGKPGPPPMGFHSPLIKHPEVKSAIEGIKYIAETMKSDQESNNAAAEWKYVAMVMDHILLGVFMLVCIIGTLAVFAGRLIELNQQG
T20 sequence (P07510 23-517): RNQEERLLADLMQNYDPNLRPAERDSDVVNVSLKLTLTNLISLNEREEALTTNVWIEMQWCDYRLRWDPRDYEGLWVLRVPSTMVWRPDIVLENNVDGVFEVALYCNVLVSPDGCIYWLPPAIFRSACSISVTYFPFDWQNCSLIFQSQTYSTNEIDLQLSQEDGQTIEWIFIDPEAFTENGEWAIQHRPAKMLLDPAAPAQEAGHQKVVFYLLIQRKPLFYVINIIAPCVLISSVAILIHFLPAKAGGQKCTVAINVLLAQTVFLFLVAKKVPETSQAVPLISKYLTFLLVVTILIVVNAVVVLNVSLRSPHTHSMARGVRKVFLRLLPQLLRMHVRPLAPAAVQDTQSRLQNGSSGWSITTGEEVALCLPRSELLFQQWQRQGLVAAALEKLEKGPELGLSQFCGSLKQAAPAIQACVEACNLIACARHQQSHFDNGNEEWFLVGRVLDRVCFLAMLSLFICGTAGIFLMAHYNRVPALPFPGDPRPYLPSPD
T20 sequence (Q07001 22-517): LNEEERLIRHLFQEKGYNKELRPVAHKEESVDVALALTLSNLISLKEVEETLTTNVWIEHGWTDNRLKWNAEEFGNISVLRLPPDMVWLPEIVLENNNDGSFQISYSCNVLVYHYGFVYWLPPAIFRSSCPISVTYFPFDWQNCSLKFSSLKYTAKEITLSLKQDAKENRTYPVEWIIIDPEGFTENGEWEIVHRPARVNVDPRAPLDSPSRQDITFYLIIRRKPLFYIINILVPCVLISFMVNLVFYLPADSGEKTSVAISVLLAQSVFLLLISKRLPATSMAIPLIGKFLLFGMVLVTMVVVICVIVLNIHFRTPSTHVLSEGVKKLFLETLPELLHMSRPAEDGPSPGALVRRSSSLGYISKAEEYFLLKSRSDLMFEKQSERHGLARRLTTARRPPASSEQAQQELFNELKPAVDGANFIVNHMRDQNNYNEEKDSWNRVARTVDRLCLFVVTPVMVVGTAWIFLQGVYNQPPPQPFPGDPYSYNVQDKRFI
T20 sequence (P11230 24-501, further chain): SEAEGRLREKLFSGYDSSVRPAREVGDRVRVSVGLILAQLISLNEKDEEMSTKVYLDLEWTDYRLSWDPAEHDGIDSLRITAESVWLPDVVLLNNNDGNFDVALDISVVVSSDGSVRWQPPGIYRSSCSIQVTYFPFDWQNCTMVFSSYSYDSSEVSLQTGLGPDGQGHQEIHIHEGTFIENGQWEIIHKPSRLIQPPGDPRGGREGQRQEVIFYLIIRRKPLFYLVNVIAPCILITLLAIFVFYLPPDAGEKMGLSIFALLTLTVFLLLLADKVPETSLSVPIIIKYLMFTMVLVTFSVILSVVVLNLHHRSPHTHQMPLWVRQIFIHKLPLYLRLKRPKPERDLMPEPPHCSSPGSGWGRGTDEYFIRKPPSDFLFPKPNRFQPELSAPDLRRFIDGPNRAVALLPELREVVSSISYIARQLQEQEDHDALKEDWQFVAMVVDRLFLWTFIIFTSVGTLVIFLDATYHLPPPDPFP
T18 sequence (P14416 1-414 isoform P14416-2): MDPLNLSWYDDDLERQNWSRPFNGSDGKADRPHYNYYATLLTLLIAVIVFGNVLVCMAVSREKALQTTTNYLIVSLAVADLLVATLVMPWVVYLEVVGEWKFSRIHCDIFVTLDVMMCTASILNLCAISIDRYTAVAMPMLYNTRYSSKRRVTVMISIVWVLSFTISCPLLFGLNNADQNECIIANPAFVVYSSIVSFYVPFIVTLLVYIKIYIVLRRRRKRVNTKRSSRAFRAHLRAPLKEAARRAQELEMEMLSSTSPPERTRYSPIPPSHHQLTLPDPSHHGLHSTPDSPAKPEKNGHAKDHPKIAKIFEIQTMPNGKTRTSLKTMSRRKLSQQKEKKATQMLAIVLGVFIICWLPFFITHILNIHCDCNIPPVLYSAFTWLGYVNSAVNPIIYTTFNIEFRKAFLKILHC
T10 sequence (P41595 whole entry): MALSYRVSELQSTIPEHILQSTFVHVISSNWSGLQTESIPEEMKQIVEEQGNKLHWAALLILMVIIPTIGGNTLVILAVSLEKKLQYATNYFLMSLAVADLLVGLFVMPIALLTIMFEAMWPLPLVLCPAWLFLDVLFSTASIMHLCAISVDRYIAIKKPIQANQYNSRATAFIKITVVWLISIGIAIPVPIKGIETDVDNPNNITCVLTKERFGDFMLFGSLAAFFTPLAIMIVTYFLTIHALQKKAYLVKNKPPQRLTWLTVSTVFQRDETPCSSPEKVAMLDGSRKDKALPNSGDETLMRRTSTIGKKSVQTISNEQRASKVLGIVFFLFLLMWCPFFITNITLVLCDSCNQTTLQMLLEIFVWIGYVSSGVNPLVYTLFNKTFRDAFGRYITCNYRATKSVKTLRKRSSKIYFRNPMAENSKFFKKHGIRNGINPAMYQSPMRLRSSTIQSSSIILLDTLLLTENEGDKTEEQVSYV
T9 sequence (Q99720 whole entry): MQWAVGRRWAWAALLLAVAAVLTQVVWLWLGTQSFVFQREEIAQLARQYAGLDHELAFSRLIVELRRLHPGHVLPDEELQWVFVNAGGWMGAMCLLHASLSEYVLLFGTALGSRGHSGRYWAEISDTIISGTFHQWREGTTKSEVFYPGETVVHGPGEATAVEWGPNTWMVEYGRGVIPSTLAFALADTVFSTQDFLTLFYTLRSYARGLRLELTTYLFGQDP

NS(=O)(=O)c1ccc(NC2=CC(=O)c3ccccc3C2=O)cc1 [4-((1,4-dioxo-1,4-dihydronaphthalen-2-yl)amino)benzenesulfonamide]
EC50 (MLANA): 500 nM
IC50 (MALME-3M cells): 0.88 µM

NS(=O)(=O)c1ccc(NC2=CC(=O)c3ccccc3C2=O)cc1 [Example 1, 4-((1,4-Dioxo-1,4-dihydronaphthalen-2-yl)amino)benzenesulfonamide]
inhibition at 10 µM (Opiate δ1 (OP1, DOP)): -6%
inhibition at 10 µM (Transporter, GABA): 9%
inhibition at 10 µM [1]: 21%
inhibition at 10 µM (Opiate μ (OP3, MOP)): 1%
inhibition at 10 µM [2]: 3%
inhibition at 10 µM (Bradykinin B2): 11%
inhibition at 10 µM (Endothelin ETB): 17%
inhibition at 10 µM (Histamine H2): -5%
inhibition at 10 µM (Sigma σ1): 15%
inhibition at 10 µM [3]: 37%
inhibition at 10 µM [4]: 14%
inhibition at 10 µM (Prostanoid EP4): 11%
inhibition at 10 µM (Glucocorticoid): 5%
inhibition at 10 µM (Interleukin IL-1): 6%
inhibition at 10 µM (Muscarinic M1): 7%
inhibition at 10 µM (Adenosine A3): 15%
inhibition at 10 µM [5]: -5%
inhibition at 10 µM (Dopamine D2S): 0%
inhibition at 10 µM (Neuropeptide Y Y2): 5%
inhibition at 10 µM [6]: -2%
inhibition at 10 µM (Histamine H1): -5%
inhibition at 10 µM (Bradykinin B1): 29%
inhibition at 10 µM (Endothelin ETA): 17%
inhibition at 10 µM (Adenosine A1): 46%
inhibition at 10 µM (Tachykinin NK1): 37%
